Like-named read-outs stand apart in the source and are kept apart here.
What was measured:
[1] = rat, in vivo; cited from earlier work
[2] = rat, in vivo; cited from earlier work; remark: listed apart in the source
mice = assay: LD50 i.v. in mice; assay type: in vivo
[3] = Concentration-time curve in blood after intravenous administration in rats; assay type: in vivo; conditions: 0.2 mmol/kg intravenous
Osmolality = assay type: physicochemical; conditions: 0.5 mol/l at 37° C.
[4] = in vivo, cited from earlier work

Molecule: polylysine-GdDTPA
- route of elimination [1]: eliminated unchanged by glomerular filtration via the kidneys

Molecule: Albumin-GdDTPA
- dose eliminated [2]: 20 % of the dose

Molecule: CNC[C@H](O)[C@@H](O)[C@H](O)[C@H](O)CO.CNC[C@H](O)[C@@H](O)[C@H](O)[C@H](O)CO.O=C([O-])CN(CCN(CC(=O)[O-])CC(=O)O)CCN(CC(=O)[O-])CC(=O)O.[Gd+3] [Magnevist, GdDTPA/dimeglumine]
- LD50 (mice): ≤ 10 mmol/kg
- distribution space [3]: distributed in the extracellular space
- Osmolality (Osmolality): 1.96 osmol/kg
- route of elimination ([4]; iv): eliminated, upon intravenous injection, by way of the kidneys
- distribution after intravenous administration [4]: distributed after intravenous administration uniformly between the vasal and interstitial spaces

From US6855309B2, “Cascade polymer bound complexing compounds, their complexes and conjugates, processes for their production, and pharmaceutical agents containing them” (Schering, AG, priority 1989, dated 2005)
